Columns and labels:
Format in all cases: cell-based
[1] = test system: pS6K1 (p-p70 S6 Kinase (Thr389)) in MCF-7 cells; assay: AlphaLISA Ultra pS6K1 assay; settings: Homo sapiens, MCF7, 2 h, 2 hours compound incubation
Outline: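 MCF-7 cells seeded 20–24 h, medium refreshed 2 h, then treated 2 h with compound (0.5% DMSO final). Lysates probed for Thr389-phosphorylated p70 S6K by AlphaLISA Ultra, 2 h acceptor then 2 h donor bead incubation, read on a multimode reader.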

[2] = test system: pAKT (p-Akt 1/2/3 (Ser473)) in MCF-7 cells; assay: AlphaLISA Ultra pAKT assay; settings: Homo sapiens, MCF7, 2 hours compound incubation
Outline: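 AlphaLISA read-out (2 h acceptor-bead, then 2 h donor-bead incubation) on thawed lysates of MCF-7 cells exposed to compounds for 2 h in 0.5% DMSO. Cells had been plated 20-24 h and given fresh medium 2 h before dosing.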

[3] = test system: MCF-7 cells; assay: Radioactive glucose uptake in MCF-7 cells; settings: Homo sapiens, MCF7, 3H-2DG uptake
Procedure: Example 157: Radioactive Glucose Uptake in MCF-7 Cells
Assay Protocol • 1. Seed approximately 12,000 MCF-7 cells cultured without insulin per well in 96-well plates (BIOCOAT, #356690) and let the cells sit in hood for 30 min. (Cell culture medium: DMEM+10% FBS). • 2. Put the cell culture plates in TC incubator (5% CO2, 37° C.) and incubate overnight. • 3. Take out the cell plates and wash with prewarmed KRH buffer (37° C.) three times using BioTek plate washer. (KRH buffer preparation: 136 mM NaCl, 4.7 mM KCl, 1.25 mM MgCl2, 1.2 mM CaCl2), 20 mM HEPES, 0.1 mg/ml sodium pyruvate, 0.1% BSA, pH 7.4). • 4. Compound preparation and treatment: • a) Add 12 ul compound stock in 100% DMSO to the first column of Echo LDV plate • b) Serially dilute the compound solution in 100% DMSO (4 uL+8 uL DMSO) using Bravo for 9 doses • c) Dispense 350 nL compounds using Echo to the working plate. • d) i) Without compound preincubation condition, dispense 116 uL KRH buffer containing tritiated 2-deoxy-D-glucose (3H-2DG) and 2-deoxy-D-glucose (2DG) to the working plate and mix. • ii. With compound preincubation condition, dispense 110 uL KRH buffer only to the working plates and mix • e) Keep the compound working plate at 37° C. incubator until use • 5. Discard the KRH buffer (cells were kept in KRH buffer for 10-15 min before 2-DG addition) and transfer 100 uL compound working solution out to the cell culture plate using Bravo. Incubate for 20 mins at 37° C. (2DG final at 0.2 mM, 3H-2DG at 10 uCi/mL). • 6. Add prewarmed 50 uL KRH buffer (37° C.) containing 60 mM cold 2DG to the wells to stop the 2DG uptake using Multidrop combi • 7. Wash the cells with prewarmed PBS three times using BioTek plate washer • 8. Add 50 uL lysis buffer (0.1 M NaOH) into the assay plate to lyse the cells using Bravo and shake at 800 rpm for 30 min. • 9. Mix and transfer 20 uL lysate to a new white plate (Corning, #3610) and add 200 uL MicroScint-20 using Bravo • 10. Shake the plate at 1000 rpm for 30 min and count in a MicroBeta plate reader.

[4] = test system: 293T cells; assay: ATP/Rotenone assay, glucose dose response, 293T cells; settings: Homo sapiens, HEK-293T, 10 uM rotenone pre-treat, 15 min glucose, Celltiter-Glo
Procedure: (§1) Example 158: ATP/Rotenone Assay
(§2) Day 1: Plate cells in Corning 96-Well Clear Bottom Black Polystyrene Microplates (corning 3340) in Glucose-free DMEM+10% dFBS • 80 uL/well • 25,000 cells/well for 293T • 10,000 cells/well for MCF7
(§3) Glucose DR to Establish Glucose EC50
(§4) • 1. […] Determine Compound IC50s • 1. 1 h pre-treat Rotenone/compound solution • Make 9× (90 uM) rotenone: 10 mM stock of Rotenone fresh—dilute 1:111× in Glucose-free DMEM). • Make compound dilution series in DMSO then dilute 1:111 in 90 uM rotenone in glucose-free media • Add 10 uL of 9× rotenone/compound solutions per well • 2. Stimulate with glucose for 15 min • Make glucose DR at 10× concentration in glucose-free DMEM • Add 10 uL per well and incubate at 37° C. for 15 min 3. Reconstitute and Measure • Remove plate, immediately add 100 uL of reconstituted Celltiter-Glo reagent (Promega; G7570) per well • Shake plate covered for 10 min at room temperature • Let plate sit for 2-5 min, read luminescence • Calculate IC50 for compounds

[5] = test system: MCF-7 cells; assay: ATP/Rotenone assay, glucose dose response, MCF-7 cells; settings: Homo sapiens, MCF7, 10 uM rotenone pre-treat, 15 min glucose, Celltiter-Glo
Procedure: as §1, §2, §3, §4

SMILES	IC50 [1] [nM]	IC50 [2] [µM]	IC50 [3] [nM]	EC50 [5] [µM]	EC50 [4] [mM]
Cc1cc(C)c(C(=O)N2CCN(c3ccccc3S(N)(=O)=O)CC2)cc1N[C@@H]1CCN(c2ccccc2C#N)C[C@@H]1C [I-171, 2-(4-(5-(((3S,4R)-1-(2-cyanophenyl)-3-methylpiperidin-4-yl)amino)-2,4-dimethylbenzoyl)piperazin-1-yl)benzenesulfonamide]	10 to 1000	> 10	10 to 1000	–	–
Cc1cc(C)c(C(=O)N2CCN(c3cccc(F)c3S(N)(=O)=O)C[C@@H]2C)c(C)c1NC1CCN(c2ccc(F)cc2C#N)CC1 [I-182, (S)-2-(4-(3-((1-(2-cyano-4-fluorophenyl)piperidin-4-yl)amino)-2,4,6-trimethylbenzoyl)-3-methylpiperazin-1-yl)-6-fluorobenzenesulfonamide]	10 to 1000	> 10	10 to 1000	–	–
Cc1cc(C)c(C(=O)N2CCN(c3cccc(F)c3[S@@](C)(=N)=O)C[C@@H]2C)c(C)c1NC1CCN(c2ccc(F)cc2C#N)CC1 [I-191, 5-fluoro-2-(4-(3-((2S)-4-(3-fluoro-2-(S-methylsulfonimidoyl)phenyl)-2-methylpiperazine-1-carbonyl)-2,4,6-trimethylphenylamino)piperidin-1-yl)benzonitrile]	10 to 1000	> 10	10 to 1000	–	–
Cc1cc(C)c(C(=O)N2CCN(c3cccnn3)[C@H](CN)C2)c(C)c1NC1CCN(c2ccccc2C#N)CC1 [I-194, (R)-2-(4-(3-(3-(aminomethyl)-4-(pyridazin-3-yl)piperazine-1-carbonyl)-2,4,6-trimethylphenylamino)piperidin-1-yl)benzonitrile]	10 to 1000	> 10	10 to 1000	–	–

Further lines, with some results ahead:

IC50 [1] [nM]	IC50 [2] [µM]	IC50 [3] [nM]	EC50 [5] [µM]	SMILES	EC50 [4] [mM]
1000 to 3000	> 10	> 10000	–	Cc1cc(C)c(C(=O)N2CCN(c3ccccc3)[C@H](CO)C2)c(C)c1NC1CCN(c2ccncn2)CC1 [I-166, [(3S)-3-(Hydroxymethyl)-4-phenyl-piperazin-1-yl]-[2,4,6-trimethyl-3-[(1-pyrimidin-4-yl-4-piperidyl)amino]phenyl]methanone]	–
1000 to 3000	> 10	3000 to 5000	–	Cc1cc(C)c(C(=O)N2CCN(c3cccnn3)[C@H](CN)C2)c(C)c1NC1CCN(c2ccc(F)cc2C#N)CC1 [I-195, (R)-2-(4-(3-(3-(aminomethyl)-4-(pyridazin-3-yl)piperazine-1-carbonyl)-2,4,6-trimethylphenylamino)piperidin-1-yl)-5-fluorobenzonitrile]	–
–	–	–	~250	O=C[C@H](O)[C@@H](O)[C@H](O)[C@H](O)CO [glucose]	~1

— patent US10844013B2, “Phenyl amino piperidine mTORC inhibitors and uses thereof” (Navitor Pharmaceuticals, Inc., priority 2016, dated 2020)
